{"source": "patent US10835538B2", "about": "“Method of treating benign prostatic hyperlasia with antibiotics” (Nymox Corporation, priority 2018, dated 2020)", "origin": "cited, not measured here", "data": [{"molecule": "CC(COc1ccccc1)N(CCCl)Cc1ccccc1", "note": "(centres unmarked) [phenoxybenzamine]", "values": [{"measurement": "Cases treated in which side effects cannot be tolerated and therapy has to be abandoned", "setting": "human, in vivo", "value": "about 10%"}, {"measurement": "Patients treated for BPH in whom side effects are present", "setting": "hypotension, dizziness, faintness, tachycardia, weakness, retrograde or absent ejaculation", "value": "approximately 30%"}]}]}
